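All cell lines were grown in 96-well plates and treated with compound for 48 hours. GI50: concentration for 50% inhibition of growth.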 Calls of active or inactive are those of the source. Rule as the data show it: active = GI50 up to about 1.1 µM and inactive = higher.

Data on 11 molecules can be found in ChEMBL document CHEMBL1201862, “PubChem BioAssay data set” (2004).

Among the test systems are Malme-3M; BT-549; SNB-19; HCC 2998; OVCAR-4; KM12; ACHN; SF-539; HCT-15; NCI-H460; OVCAR-5; M14; U-251; UO-31; MDA-N; CAKI-1; HOP-92; NCI-H23; HL-60.
Experiment in all cases: NCI anticancer screen, dose series, 48 h

`Nc1nc(I)nc2c1ncn2C1OC(COS(N)(=O)=O)C(O)C1O` (stereo not given): the GI50 with Malme-3M is < 0.01 µM (active); with BT-549 it was < 0.0108 µM (active); with SNB-19 it was < 0.01 µM (active); in the test with HCC 2998, < 0.0127 µM (active); in the test on OVCAR-4, < 0.01 µM (active); in the test on KM12, < 0.01 µM (active). The GI50 was < 0.0117 µM (active) in the test with ACHN; < 0.01 µM (active) in the test on SF-539; 0.0176 µM in the test on HCT-15; 0.0126 µM (active) in the test on NCI-H460; < 0.01 µM (active) with OVCAR-5; < 0.0104 µM (active) in the test on M14. Besides, the GI50 in the test with U-251 was < 0.01 µM (active); with UO-31 it was 0.0187 µM (active); in the test on MDA-N it was < 0.01 µM (active); in the test with CAKI-1, 0.0336 µM (active); with HOP-92 it was < 0.0142 µM (active); in the test on NCI-H23 it was < 0.01 µM (active).
As for `N#CC12C(=O)N=C(N)C1(C#N)C(c1ccco1)NC1=C2CCCC1` (stereo not given), the GI50 in the test on Malme-3M, in the test with BT-549, with SNB-19, with HCC 2998, with OVCAR-4 and in the test on HL-60 was > 100 µM (inactive) throughout. Further, the GI50 in the test with KM12 is > 100 µM (inactive); in the test on ACHN it was > 100 µM (inactive); in the test with HCT-15 it was > 100 µM; in the test with NCI-H460, > 100 µM (inactive); in the test with OVCAR-5, > 100 µM (inactive); in the test with M14, > 100 µM (inactive). Moreover, the GI50 in the test on U-251, with UO-31, in the test on MDA-N, with CAKI-1, in the test with HOP-92 and with NCI-H23 was > 100 µM (inactive) in each case.
In the case of `Cc1sc(Nc2ccccc2[N+](=O)[O-])c(C#N)c1C`, the GI50 is 0.0556 µM (active) with Malme-3M; 19.5 µM (inactive) with BT-549; 26.2 µM (inactive) with SNB-19; > 100 µM (inactive) in the test with HCC 2998; 43.6 µM (inactive) in the test on OVCAR-4; > 100 µM (inactive) with KM12. For the same molecule, the GI50 was 31 µM (inactive) with ACHN; 21.5 µM (inactive) in the test on SF-539; 23 µM in the test with HCT-15; > 100 µM (inactive) in the test on NCI-H460; 23 µM (inactive) in the test on OVCAR-5; > 100 µM (inactive) in the test on M14. Besides, the GI50 in the test with U-251 is 21.3 µM (inactive); in the test with UO-31, > 100 µM (inactive); in the test with MDA-N, > 100 µM (inactive); with CAKI-1, 17.1 µM (inactive); in the test on HOP-92 it was 18.7 µM (inactive); with NCI-H23, 13.9 µM (inactive).
Consider `CN1CCN(C(=S)N2CCN(C)CC2)CC1`, for which the GI50 in the test with Malme-3M is > 100 µM (inactive); with BT-549 it was > 100 µM (inactive); in the test on SNB-19 it was > 100 µM (inactive); in the test with HCC 2998, > 61.5 µM (inactive); in the test on OVCAR-4, > 65.2 µM (inactive); in the test with HL-60, > 100 µM (inactive). For the same molecule, the GI50 in the test with KM12 is > 100 µM (inactive); with ACHN, > 100 µM (inactive); with SF-539, 10.8 µM (inactive); in the test with NCI-H460, 5.35 µM (inactive); with OVCAR-5, > 100 µM (inactive); in the test on M14, > 48.1 µM (inactive). Further, the GI50 is > 100 µM (inactive) with U-251; > 100 µM (inactive) in the test with UO-31; > 26.6 µM (inactive) in the test with MDA-N; > 100 µM (inactive) with CAKI-1; > 100 µM (inactive) with HOP-92; > 32.1 µM (inactive) with NCI-H23.
As to `O=C1c2ccccc2C(=O)N1CCCC(=O)n1cc(F)c(=O)[nH]c1=O`, the GI50 was 27.9 µM (inactive) in the test with Malme-3M; > 100 µM (inactive) in the test with BT-549; 49.1 µM (inactive) with SNB-19; 0.82 µM (active) in the test with HCC 2998; > 100 µM (inactive) in the test on OVCAR-4; 7.78 µM (inactive) with HL-60. Moreover, the GI50 with KM12 was 6.73 µM (inactive); in the test with ACHN, 15.8 µM (inactive); with SF-539 it was 7 µM (inactive); with HCT-15 it was 8.41 µM; in the test with NCI-H460, 2.68 µM (inactive); in the test with M14, 14.5 µM (inactive). For the same molecule, the GI50 is > 100 µM (inactive) in the test with U-251; 11.4 µM (inactive) in the test on UO-31; 16.1 µM (inactive) in the test on MDA-N; 6.05 µM (inactive) in the test on CAKI-1; > 21.4 µM (inactive) with HOP-92; 11.9 µM (inactive) in the test on NCI-H23.
Regarding `O=c1oc2ccccc2cc1-c1csc(Nc2ccc(F)cc2)n1`, the GI50 in the test with BT-549 was 6.47 µM (inactive); in the test with SNB-19, 8.15 µM (inactive); in the test on HCC 2998, 5.48 µM (inactive); in the test with OVCAR-4, 7.31 µM (inactive); with HL-60 it was 4.59 µM (inactive); in the test on KM12, 5.5 µM (inactive). Further, the GI50 was 8.55 µM (inactive) in the test with ACHN; 1.91 µM (inactive) with SF-539; 2.86 µM in the test with HCT-15; 5.05 µM (inactive) in the test on NCI-H460; 8.38 µM (inactive) in the test on OVCAR-5; 4.25 µM (inactive) with M14. In addition, the GI50 with U-251 is 2.83 µM (inactive); with UO-31 it was 2.33 µM (inactive); in the test with MDA-N it was 4.66 µM (inactive); with CAKI-1, 2.94 µM (inactive); with HOP-92, 6.53 µM (inactive); with NCI-H23, 2.9 µM (inactive).
For `O=C(O)CCCc1ccc2ccccc2c1`, the GI50 with BT-549, in the test with SNB-19, in the test with HCC 2998, in the test on OVCAR-4, with HL-60 and with KM12 was > 100 µM (inactive) throughout. In addition, the GI50 with ACHN is > 100 µM (inactive); in the test with SF-539 it was > 100 µM (inactive); with HCT-15, > 100 µM; in the test with NCI-H460, > 100 µM (inactive); in the test on OVCAR-5 it was > 100 µM (inactive); in the test with M14, > 100 µM (inactive). Besides, the GI50 in the test on U-251, with UO-31, in the test with MDA-N, in the test on CAKI-1, in the test with HOP-92 and in the test with NCI-H23 was > 100 µM (inactive) in each case.
For `O=C1OC(c2ccc(Cl)cc2)=N/C1=C\c1ccccc1`, the GI50 in the test with BT-549 is > 100 µM (inactive); in the test on SNB-19 it was > 100 µM (inactive); in the test on HCC 2998, > 100 µM (inactive); in the test on OVCAR-4 it was > 100 µM (inactive); in the test on HL-60, 62.7 µM (inactive); with KM12, > 100 µM (inactive). For the same molecule, the GI50 with ACHN is > 100 µM (inactive); with SF-539, > 100 µM (inactive); in the test with HCT-15, > 100 µM; in the test with NCI-H460 it was > 100 µM (inactive); in the test with OVCAR-5, > 100 µM (inactive); with M14 it was > 100 µM (inactive). The GI50 with U-251, in the test with UO-31, in the test with MDA-N, in the test on CAKI-1, in the test with HOP-92 and in the test with NCI-H23 was > 100 µM (inactive) in each case.
For `Cc1nc2c(=O)n(C)c(=O)n(C)c2o1`, the GI50 in the test on Malme-3M, in the test on BT-549, in the test with SNB-19, in the test with HCC 2998, in the test on OVCAR-4 and in the test with KM12 was > 100 µM (inactive) throughout. Moreover, the GI50 in the test with ACHN is > 100 µM (inactive); with SF-539, > 100 µM (inactive); in the test with HCT-15, > 100 µM; with NCI-H460 it was > 100 µM (inactive); in the test with OVCAR-5 it was > 100 µM (inactive); in the test on M14, > 100 µM (inactive). The GI50 in the test on U-251, in the test with UO-31, in the test on MDA-N, in the test on CAKI-1, with HOP-92 and with NCI-H23 was > 100 µM (inactive) throughout.
With `COC(=O)C1(Cc2cccc(Cl)c2)CCCCCCN1C(=O)c1ccccc1` (stereo not given), the GI50 is 12.2 µM (inactive) with Malme-3M; 16.7 µM (inactive) with BT-549; 15.1 µM (inactive) in the test with SNB-19; 13.6 µM (inactive) with HCC 2998; 14.5 µM (inactive) in the test on OVCAR-4; 5.97 µM (inactive) in the test with HL-60. For the same molecule, the GI50 in the test with ACHN is 9.46 µM (inactive); with HCT-15, 11.5 µM; in the test on NCI-H460, 15.2 µM (inactive); with OVCAR-5, 15.8 µM (inactive); with M14 it was 17.9 µM (inactive); in the test on U-251 it was 15.4 µM (inactive). For the same molecule, the GI50 is 10.8 µM (inactive) in the test with UO-31, 16.5 µM (inactive) in the test with MDA-N, 14.3 µM (inactive) with HOP-92 and 17.2 µM (inactive) in the test on NCI-H23.
As to `O=C(Cn1c2ccc(Br)cc2c2nc3ccccc3nc21)Nc1ccccc1`, the GI50 is 28.6 µM (inactive) with Malme-3M; > 100 µM (inactive) in the test with BT-549; 39.7 µM (inactive) in the test on SNB-19; 34.8 µM (inactive) in the test with HCC 2998; 20.9 µM (inactive) in the test on OVCAR-4; 56.8 µM (inactive) with KM12. Further, the GI50 with ACHN was 50 µM (inactive); in the test on HCT-15, 25.1 µM; with NCI-H460 it was 31.8 µM (inactive); in the test on OVCAR-5, 47 µM (inactive); with M14, 30.1 µM (inactive); with U-251, 24 µM (inactive). The GI50 is 42.2 µM (inactive) with UO-31; 37.7 µM (inactive) in the test with MDA-N; 26.8 µM (inactive) in the test on CAKI-1; 14.1 µM (inactive) with HOP-92; 28 µM (inactive) in the test on NCI-H23.
